EC50 data for one molecule are collected here from ChEMBL document CHEMBL1955804, “Peroxisome proliferator-activated receptors (PPARs) have multiple binding points that accommodate ligands in various conformations: phenylpropanoic acid-type PPAR ligands bind to PPAR in different conformations, depending on the subtype” (J Med Chem, 2012).

What all share (assay type): functional
Test [1] addresses T1, Peroxisome proliferator-activated receptor gamma (Homo sapiens, UniProt P37231).
T1 sequence (P37231 whole entry): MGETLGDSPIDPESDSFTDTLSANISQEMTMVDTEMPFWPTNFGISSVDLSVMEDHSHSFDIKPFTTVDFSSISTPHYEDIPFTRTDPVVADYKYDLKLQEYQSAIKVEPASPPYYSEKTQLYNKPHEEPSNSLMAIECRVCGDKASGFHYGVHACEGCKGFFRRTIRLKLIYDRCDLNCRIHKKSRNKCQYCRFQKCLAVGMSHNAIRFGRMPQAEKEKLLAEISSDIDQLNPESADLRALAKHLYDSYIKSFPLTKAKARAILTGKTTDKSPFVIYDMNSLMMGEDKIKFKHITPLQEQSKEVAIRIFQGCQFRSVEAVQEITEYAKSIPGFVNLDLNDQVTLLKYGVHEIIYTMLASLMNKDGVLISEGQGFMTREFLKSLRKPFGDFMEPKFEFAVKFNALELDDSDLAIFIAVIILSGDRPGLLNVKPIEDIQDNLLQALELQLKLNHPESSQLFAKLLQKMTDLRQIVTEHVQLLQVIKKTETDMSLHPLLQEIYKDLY
The test is described as follows: Agonist activity at N-terminal His-tagged human PPARgamma expressed in Escherichia coli BL21 assessed as transactivation activity.

In test [2] the target is T2, Peroxisome proliferator-activated receptor alpha (Homo sapiens, UniProt Q07869).
T2 sequence (Q07869 whole entry): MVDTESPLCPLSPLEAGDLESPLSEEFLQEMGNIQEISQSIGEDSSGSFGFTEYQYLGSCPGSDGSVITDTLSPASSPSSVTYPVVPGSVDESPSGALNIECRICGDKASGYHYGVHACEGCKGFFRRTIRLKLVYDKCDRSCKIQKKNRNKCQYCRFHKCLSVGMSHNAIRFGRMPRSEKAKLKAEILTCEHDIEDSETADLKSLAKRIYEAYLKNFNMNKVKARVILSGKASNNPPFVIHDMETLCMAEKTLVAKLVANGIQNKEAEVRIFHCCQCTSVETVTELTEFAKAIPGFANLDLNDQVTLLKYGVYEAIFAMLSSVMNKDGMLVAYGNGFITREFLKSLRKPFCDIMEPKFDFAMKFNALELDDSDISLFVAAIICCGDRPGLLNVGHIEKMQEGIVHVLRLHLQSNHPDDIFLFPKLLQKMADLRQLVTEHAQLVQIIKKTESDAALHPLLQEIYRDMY
The test is described as follows: Agonist activity at human PPARalpha assessed as transactivation activity.

Test [3] addresses T3, Peroxisome proliferator-activated receptor delta (Homo sapiens, UniProt Q03181).
T3 sequence (Q03181 whole entry): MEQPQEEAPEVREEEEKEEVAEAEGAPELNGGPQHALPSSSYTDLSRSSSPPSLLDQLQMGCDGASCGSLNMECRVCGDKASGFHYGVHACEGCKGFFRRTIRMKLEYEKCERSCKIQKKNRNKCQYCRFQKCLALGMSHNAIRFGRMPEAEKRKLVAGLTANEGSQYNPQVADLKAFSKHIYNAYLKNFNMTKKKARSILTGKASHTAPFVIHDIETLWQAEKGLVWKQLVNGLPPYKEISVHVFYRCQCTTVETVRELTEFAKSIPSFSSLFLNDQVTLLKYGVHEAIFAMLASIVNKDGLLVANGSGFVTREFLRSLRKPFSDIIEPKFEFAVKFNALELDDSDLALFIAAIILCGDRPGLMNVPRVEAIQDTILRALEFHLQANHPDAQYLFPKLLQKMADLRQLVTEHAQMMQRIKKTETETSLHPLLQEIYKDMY
The test is described as follows: Agonist activity at human PPARdelta assessed as transactivation activity.

The EC50 is the concentration that produces a half-maximal response. For the molecule `CC[C@@H](Cc1ccc(OC)c(CNC(=O)c2ccc3ccc4cccc5ccc2c3c45)c1)C(=O)O`, the EC50 result is “Not Active” in test [1], 12 nM in test [2] and 43 nM in test [3].
